# Results taken from patent publication US20080138835A1 (priority 2004, published 2008).
# Where two headings read alike, the source gives them in different places.
# Tests used:
# [1] = target: E. coli MetG (Escherichia coli, UniProt P00959); test: biochemical
# [2] = target: H influenzae MetG (Haemophilus influenzae, UniProt P43828); test: biochemical
# [3] = tested on: S. aureus; assay type: cell-based
# [4] = tested on: S. aureus mutants; test: microbe, parasite or virus in culture; assay type: cell-based; details: Staphylococcus aureus, ATCC43300
# [5] = tested on: S. aureus; test: microbe, parasite or virus in culture; assay type: cell-based; details: Staphylococcus aureus
# [6] = tested on: S. aureus; test: microbe, parasite or virus in culture; assay type: cell-based; details: for MIC: Staphylococcus aureus
# [7] = target: S. pneumoniae MetS2 (Streptococcus pneumoniae, UniProt A2MSJ4); test: biochemical
# Chain of S. pneumoniae MetS2 (A2MSJ4 1-545): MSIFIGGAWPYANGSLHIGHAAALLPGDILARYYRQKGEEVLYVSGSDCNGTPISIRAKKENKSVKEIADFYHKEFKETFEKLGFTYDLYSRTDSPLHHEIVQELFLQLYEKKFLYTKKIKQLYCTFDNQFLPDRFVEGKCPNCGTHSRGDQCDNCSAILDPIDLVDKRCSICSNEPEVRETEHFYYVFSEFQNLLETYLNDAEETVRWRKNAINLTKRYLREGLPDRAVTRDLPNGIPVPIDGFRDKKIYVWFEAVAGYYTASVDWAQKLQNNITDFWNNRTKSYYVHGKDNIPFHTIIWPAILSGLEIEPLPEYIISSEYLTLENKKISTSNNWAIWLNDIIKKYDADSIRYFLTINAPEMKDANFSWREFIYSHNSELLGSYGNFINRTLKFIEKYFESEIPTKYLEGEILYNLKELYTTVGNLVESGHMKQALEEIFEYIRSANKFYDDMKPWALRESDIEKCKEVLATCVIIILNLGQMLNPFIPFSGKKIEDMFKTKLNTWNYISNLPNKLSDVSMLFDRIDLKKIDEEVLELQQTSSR
# [8] = tested on: S. aureus RN4220; test: microbe, parasite or virus in culture; assay type: cell-based; details: for MIC: Staphylococcus aureus
# [9] = target: S. aureus MetS (Staphylococcus aureus, UniProt P67579); test: biochemical
# Chain of S. aureus MetS (P67579 whole entry): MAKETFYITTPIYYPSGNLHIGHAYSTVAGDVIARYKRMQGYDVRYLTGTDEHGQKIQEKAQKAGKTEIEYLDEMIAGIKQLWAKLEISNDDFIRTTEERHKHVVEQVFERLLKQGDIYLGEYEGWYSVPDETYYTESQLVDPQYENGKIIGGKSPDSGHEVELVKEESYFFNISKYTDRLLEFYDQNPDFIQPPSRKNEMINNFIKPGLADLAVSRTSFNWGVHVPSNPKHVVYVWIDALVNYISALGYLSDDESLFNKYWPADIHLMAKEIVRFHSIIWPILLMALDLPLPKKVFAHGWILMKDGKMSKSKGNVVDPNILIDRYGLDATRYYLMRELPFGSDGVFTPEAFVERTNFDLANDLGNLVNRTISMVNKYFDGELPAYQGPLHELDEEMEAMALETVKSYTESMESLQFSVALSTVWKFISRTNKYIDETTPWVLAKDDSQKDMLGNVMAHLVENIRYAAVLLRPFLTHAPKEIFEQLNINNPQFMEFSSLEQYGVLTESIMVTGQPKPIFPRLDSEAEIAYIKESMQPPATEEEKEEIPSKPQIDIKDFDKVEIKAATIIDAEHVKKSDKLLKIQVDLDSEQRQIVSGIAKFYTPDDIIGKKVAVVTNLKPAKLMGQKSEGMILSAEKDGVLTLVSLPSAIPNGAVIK
# [10] = tested on: staphylococci and streptococci; test: organism not typed; assay type: cell-based
# [11] = tested on: staphylococci; details: cited from earlier work
# [12] = 1079077 (MRSA), 10^10 CFU, five days
# [13] = ATCC 29213 (MSSA), 10^10 CFU, five days
# [14] = ATCC 43300 (MRSA), 10^10 CFU, five days
# [15] = LZ10 (MRSA), 10^10 CFU, five days
# [16] = S. aureus, including MSSA and MRSA strains
# [17] = ATCC 29213 / MSSA, read-out: MIC After 20 passages, S. aureus ATCC29213, MSSA, MupS
# [18] = ATCC 29213 / MSSA, read-out: MIC Initial, S. aureus ATCC29213, MSSA, MupS
# [19] = ATCC 43300 / MRSA, read-out: MIC After 20 passages, S. aureus ATCC43300, MRSA, MupS
# [20] = MRSA / NRS 103, read-out: MIC After 20 passages, S. aureus NRS103, MRSA, MupS
# [21] = MRSA / NRS 103, read-out: MIC Initial, S. aureus NRS103, MRSA, MupS
# [22] = MRSA, read-out: MIC After 20 passages, S. aureus 10-420, MRSA, HL-MupR
# [23] = MRSA, read-out: MIC After 20 passages, S. aureus 25-670, MRSA, HL-MupR
# [24] = MRSA, read-out: MIC After 20 passages, S. aureus 31-1334, MRSA, LL-MupR
# [25] = MRSA, read-out: MIC After 20 passages, S. aureus 87-2797, MRSA, HL-MupR
# [26] = MRSA, read-out: MIC After 20 passages, S. aureus 1079077, MRSA, MupS
# [27] = MRSA, read-out: MIC After 20 passages, S. aureus LZ1, MRSA, HL-MupR
# [28] = MRSA, read-out: MIC After 20 passages, S. aureus LZ6, MRSA, HL-MupR
# [29] = MRSA, read-out: MIC After 20 passages, S. aureus LZ10, MRSA, MupS
# [30] = MRSA, read-out: MIC Initial, S. aureus 10-420, MRSA, HL-MupR
# [31] = MRSA, read-out: MIC Initial, S. aureus 25-670, MRSA, HL-MupR
# [32] = MRSA, read-out: MIC Initial, S. aureus 31-1334, MRSA, LL-MupR
# [33] = MRSA, read-out: MIC Initial, S. aureus 87-2797, MRSA, HL-MupR
# [34] = MRSA, read-out: MIC Initial, S. aureus 1079077, MRSA, MupS
# [35] = MRSA, read-out: MIC Initial, S. aureus LZ1, MRSA, HL-MupR
# [36] = MRSA, read-out: MIC Initial, S. aureus LZ6, MRSA, HL-MupR
# [37] = MRSA, read-out: MIC Initial, S. aureus LZ10, MRSA, MupS
# [38] = MSSA / NRS 107, read-out: MIC After 20 passages, S. aureus NRS107, MSSA, HL-MupR
# [39] = MSSA / NRS 107, read-out: MIC Initial, S. aureus NRS107, MSSA, HL-MupR
# [40] = MSSA, read-out: MIC After 20 passages, S. aureus 1079101, MSSA, HL-MupR
# [41] = MSSA, read-out: MIC Initial, S. aureus 1079101, MSSA, HL-MupR
# [42] = RN4220, pYH4 vector control, +aTc inducer
# [43] = RN4220, pYH4 vector control, −aTc inducer
# Chain of H influenzae MetG (P43828 whole entry): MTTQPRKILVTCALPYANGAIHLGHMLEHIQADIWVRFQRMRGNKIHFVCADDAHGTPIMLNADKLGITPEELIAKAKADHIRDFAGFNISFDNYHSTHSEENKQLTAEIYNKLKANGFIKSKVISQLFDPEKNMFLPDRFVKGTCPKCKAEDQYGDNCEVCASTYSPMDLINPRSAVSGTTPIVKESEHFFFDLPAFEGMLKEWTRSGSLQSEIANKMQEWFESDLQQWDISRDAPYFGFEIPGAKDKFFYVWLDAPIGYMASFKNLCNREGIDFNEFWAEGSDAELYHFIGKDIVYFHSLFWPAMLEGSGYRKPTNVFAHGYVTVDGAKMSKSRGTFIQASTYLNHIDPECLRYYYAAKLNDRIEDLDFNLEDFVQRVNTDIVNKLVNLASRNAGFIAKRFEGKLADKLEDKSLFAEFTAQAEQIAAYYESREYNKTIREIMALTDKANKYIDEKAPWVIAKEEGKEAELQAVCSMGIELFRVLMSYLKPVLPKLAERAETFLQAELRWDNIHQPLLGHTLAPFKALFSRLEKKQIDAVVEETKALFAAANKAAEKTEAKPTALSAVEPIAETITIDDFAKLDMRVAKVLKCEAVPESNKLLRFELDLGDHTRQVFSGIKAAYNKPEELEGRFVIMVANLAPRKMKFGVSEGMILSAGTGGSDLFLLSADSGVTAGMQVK
# Chain of E. coli MetG (P00959 whole entry, looked up): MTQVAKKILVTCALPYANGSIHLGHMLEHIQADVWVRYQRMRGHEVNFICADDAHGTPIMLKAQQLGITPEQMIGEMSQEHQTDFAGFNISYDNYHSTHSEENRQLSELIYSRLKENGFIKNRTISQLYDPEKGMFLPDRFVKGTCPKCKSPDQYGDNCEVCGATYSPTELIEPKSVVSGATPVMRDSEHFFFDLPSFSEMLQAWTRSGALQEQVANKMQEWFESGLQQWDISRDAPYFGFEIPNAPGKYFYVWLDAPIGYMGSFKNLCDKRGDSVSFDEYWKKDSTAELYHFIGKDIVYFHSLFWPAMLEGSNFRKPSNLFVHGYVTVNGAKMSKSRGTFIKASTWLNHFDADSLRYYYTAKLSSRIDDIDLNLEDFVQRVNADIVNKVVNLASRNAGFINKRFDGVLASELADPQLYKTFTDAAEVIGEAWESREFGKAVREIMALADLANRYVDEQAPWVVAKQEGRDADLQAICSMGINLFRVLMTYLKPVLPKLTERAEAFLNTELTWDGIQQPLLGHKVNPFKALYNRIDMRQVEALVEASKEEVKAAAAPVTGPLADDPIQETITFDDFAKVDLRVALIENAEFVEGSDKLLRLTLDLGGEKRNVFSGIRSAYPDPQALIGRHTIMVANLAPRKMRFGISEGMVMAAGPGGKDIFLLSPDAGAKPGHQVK
smiles,measurement,setting,value
"C=C(F)c1sc(CNCCCNc2cc(=O)c3ccccc3[nH]2)c(C)c1Br [Compound 1, N-(4-bromo-5-(1-fluorovinyl)-3-methylthiophen-2-ylmethyl)-N′-(1H-quinolin-4-one)propane-1,3-diamine]",IC50,[1],0.307 µM
same,IC50,[2],0.025 µM
same,MPC,[3]; [12],32 µg/mL
same,MPC,[3]; [13],32 µg/mL
same,MPC,[3]; [14],32 µg/mL
same,MPC,[3]; [15],32 µg/mL
same,MPC,[3]; [16],32 µg/mL
same,MIC,[4],2 mg/L
same,MIC,[5]; [17],4 mg/L
same,MIC,[5]; [18],0.06 mg/L
same,MIC,[5]; [19],1 mg/L
same,MIC,[5]; [20],1 mg/L
same,MIC,[5]; [21],0.12 mg/L
same,MIC,[5]; [22],8 mg/L
same,MIC,[5]; [23],8 mg/L
same,MIC,[5]; [24],8 mg/L
same,MIC,[5]; [25],16 mg/L
same,MIC,[5]; [26],16 mg/L
same,MIC,[5]; [27],0.06 mg/L
same,MIC,[5]; [28],2 mg/L
same,MIC,[5]; [29],0.5 mg/L
same,MIC,[5]; [30],0.06 mg/L
same,MIC,[5]; [31],0.06 mg/L
same,MIC,[5]; [32],0.03 mg/L
same,MIC,[5]; [33],0.03 mg/L
same,MIC,[5]; [34],0.25 mg/L
same,MIC,[5]; [35],0.06 mg/L
same,MIC,[5]; [36],0.06 mg/L
same,MIC,[5]; [37],0.03 mg/L
same,MIC,[5]; [38],0.5 mg/L
same,MIC,[5]; [39],0.015 mg/L
same,MIC,[5]; [40],16 mg/L
same,MIC,[5]; [41],0.06 mg/L
same,initial MIC range,[6],0.03 to 0.5 mg/L
same,MIC,[6],0.5 mg/L
same,MIC,[6]; ATCC 29213 / MSSA,0.03 mg/L
same,MIC,[6]; ATCC 43300 / MRSA,0.06 mg/L
same,IC50,[7],> 0.5 µM
same,shift in the MIC upon induction of MRS expression,[8]; RN4220 (pYH4-MRS),8 fold
same,MIC,"[8]; RN4220, pYH4-MRS, +aTc inducer",1 mg/L
same,MIC,"[8]; RN4220, pYH4-MRS, −aTc inducer",0.12 mg/L
same,MIC,[8]; [42],0.008 mg/L
same,MIC,[8]; [43],0.008 mg/L
same,IC50,[9],< 0.0019 µM
same,MIC range after twenty serial passages,[10]; strains of Table 4,0.06 to 16 mg/L
same,MIC initial range,"[10]; strains of Table 4, before passages",0.015 to 0.06 mg/L
C/C(=C\C(=O)OCCCCCCCCC(=O)O)C[C@@H]1OC[C@H](C[C@@H]2O[C@H]2[C@@H](C)[C@H](C)O)[C@@H](O)[C@H]1O [Mupirocin],MPC,[3]; [12],>32 µg/mL
same,MPC,[3]; [13],32 µg/mL
same,MPC,[3]; [14],32 µg/mL
same,MPC,[3]; [15],>32 µg/mL
same,MPC,[3]; [16],≥ 32 µg/mL
same,MIC,[5]; [17],0.5 mg/L
same,MIC,[5]; [18],0.06 mg/L
same,MIC,[5]; [19],8 mg/L
same,MIC,"[5]; ATCC 43300 / MRSA, read-out: MIC Initial, S. aureus ATCC43300, MRSA, MupS",0.06 mg/L
same,MIC,[5]; [20],1 mg/L
same,MIC,[5]; [21],0.25 mg/L
same,MIC,[5]; [22],4100 mg/L
same,MIC,[5]; [23],4100 mg/L
same,MIC,[5]; [24],128 mg/L
same,MIC,[5]; [25],4100 mg/L
same,MIC,[5]; [26],1 mg/L
same,MIC,[5]; [27],4100 mg/L
same,MIC,[5]; [28],4100 mg/L
same,MIC,[5]; [29],2 mg/L
same,MIC,[5]; [30],4100 mg/L
same,MIC,[5]; [31],2050 mg/L
same,MIC,[5]; [32],32 mg/L
same,MIC,[5]; [33],2050 mg/L
same,MIC,[5]; [34],0.5 mg/L
same,MIC,[5]; [35],4100 mg/L
same,MIC,[5]; [36],4100 mg/L
same,MIC,[5]; [37],0.25 mg/L
same,MIC,[5]; [38],4100 mg/L
same,MIC,[5]; [39],4100 mg/L
same,MIC,[5]; [40],4100 mg/L
same,MIC,[5]; [41],4100 mg/L
same,MIC,[6]; ATCC 29213 / MSSA,0.12 mg/L
same,MIC,[6]; ATCC 43300 / MRSA,0.12 mg/L
same,MIC,[11]; high-level mupirocin resistance,> 256 mg/L
same,MIC,[11]; low-level mupirocin resistance,8 to 256 mg/L
same,MIC change upon MRS overexpression,[8],remained unchanged
same,MIC,"[8]; RN4220, pYH4-MRS, +aTc inducer",0.06 mg/L
same,MIC,"[8]; RN4220, pYH4-MRS, −aTc inducer",0.06 mg/L
same,MIC,[8]; [42],0.06 mg/L
same,MIC,[8]; [43],0.06 mg/L
same,MIC range after 20 passages,[10]; mupirocin-susceptible strains,0.5 to 8 mg/L
same,MIC range initial,[10]; mupirocin-susceptible strains,0.06 to 0.5 mg/L
same,MIC,[10]; read-out: MIC after 20 passages,128 mg/L
same,MIC,[10]; read-out: MIC initial,32 mg/L
CN[C@H](CC(C)C)C(=O)N[C@H]1C(=O)N[C@@H](CC(N)=O)C(=O)N[C@H]2C(=O)N[C@H]3C(=O)N[C@H](C(=O)N[C@H](C(=O)O)c4cc(O)cc(O)c4-c4cc3ccc4O)[C@H](O)c3ccc(c(Cl)c3)Oc3cc2cc(c3O[C@@H]2O[C@H](CO)[C@@H](O)[C@H](O)[C@H]2O[C@H]2C[C@](C)(N)[C@H](O)[C@H](C)O2)Oc2ccc(cc2Cl)[C@H]1O [Vancomycin],MIC change upon MRS overexpression,[8],remained unchanged
same,MIC,"[8]; RN4220, pYH4-MRS, +aTc inducer",0.5 mg/L
same,MIC,"[8]; RN4220, pYH4-MRS, −aTc inducer",0.5 mg/L
same,MIC,[8]; [42],1 mg/L
same,MIC,[8]; [43],1 mg/L
CO[C@@H]1[C@@H](OC(N)=O)[C@@H](O)[C@H](Oc2ccc3c(O)c(NC(=O)c4ccc(O)c(CC=C(C)C)c4)c(=O)oc3c2C)OC1(C)C [Novobiocin],MIC change upon MRS overexpression,[8],remained unchanged
same,MIC,"[8]; RN4220, pYH4-MRS, +aTc inducer",0.25 mg/L
same,MIC,"[8]; RN4220, pYH4-MRS, −aTc inducer",0.25 mg/L
same,MIC,[8]; [42],0.25 mg/L
same,MIC,[8]; [43],0.25 mg/L
